# Measurements reported in publication PMC6984391, “Anion carriers as potential treatments for cystic fibrosis: transport in cystic fibrosis cells, and additivity to channel-targeting drugs” (Chemical Science, 2019).
# Tests used:
# YFP-FRT cells [1] = experiment: IncuCyte ZOOM live-cell viability (DRAQ7) in YFP-FRT cells; assay type: cell-based
# Description: For cytotoxicity studies, we used YFP-CFBE and YFP-FRT cells. […]
# To evaluate the viability of YFP -FRT cells, we used the IncuCyte ZOOM TM (Essen Bioscience (now Sartorius), Welwyn Garden City, UK) live-cell analysis system. YFP-FRT cells were seeded in 96-well plates at a density of 4000 cells well-1 and allowed to grow for 48 h at 37 °C in a humidified atmosphere of 5% CO2. Then, the YFP-FRT culture media was replaced with fresh culture media containing test anionophores or the vehicle (DMSO 0.5% v v-1) and deep red anthraquinone 7 (DRAQ7; Biostatus, Shepshed, UK) was added following the manufacturer’s instructions before the YFP-FRT cells were transferred to the IncuCyte ZOOMTM. At 2 h intervals over a 24 h period, 4 images of each well on 96-well plates were acquired; the phase contrast images were used to determine the total number of cells per well, while the fluorescence images to identify the number of dead cells with nuclei labelled red by DRAQ7. In each experiment, one data point is the average value from four wells. […]
# To investigate further the cytotoxicity of anionophores 12, 15 and 19 we used YFP-FRT cells. As a control we tested compound 11. Using the IncuCyte ZOOMTM (Essen Bioscience) live-cell analysis system and the membrane impermeable far-red fluorescent DNA dye DRAQ7 to label the nuclei of dead cells, we examined the effects of the anionophores 11, 12, 15 and 19 on the viability of YFP -FRT cells over a 24 h period. Consistent with our previous results (Fig.
# S23 and ref 10), compound 11 had little effect on cell viability. Only at the highest concentrations tested (30 and 50 µM) and at time points later than 12 h (50 µM) or 14 h (30 µM) did cytotoxicity become apparent ( P < 0.05 vs. DMSO 0.5% v v -1) (Fig. S24). By contrast, the same concentrations of compounds 12, 15 and 19 had cytotoxic effects from 2 h with […]
# 19 (10 µM) from 8 h onwards (P < 0.05 vs. DMSO 0.5% v v -1) (Fig. S24).
# YFP-FRT cells [2] = experiment: IncuCyte ZOOM apoptosis (annexin V red) in YFP-FRT cells; assay type: cell-based; details: for time from which apoptosis is apparent: 30 and 50 μM, P < 0.05 vs. DMSO; for induction of apoptosis: all concentrations tested, 24 h period
# Description: To test for the induction of apoptosis by anionophores, we also used the IncuCyte ZOOMTM (Essen Bioscience) live-cell analysis system. YFP-FRT cells were seeded and grown on 96-well plates as described above for cell viability studies. After 48 h, the YFP-FRT culture media was replaced with fresh culture media containing test anionophores or the vehicle (DMSO 0.5% v v-1) and IncuCyte annexin V red reagent (Essen Bioscience) was added following the manufacturer’s instructions before the YFP-FRT cells were transferred to the IncuCyte ZOOMTM. At 2 h intervals over a 24 h period, 4 images of each well on 96-well plates were acquired; the phase contrast images were used to determine the total number of cells per well, while the fluorescence images to identify the number of apoptotic cells labelled red by the IncuCyte annexin V red reagent. In each experiment, one data point is the average value […]
# Except for ivacaftor and lumacaftor (Selleck Chemicals; Stratech Scientific Ltd., Newmarket, UK), chemicals were supplied by the Sigma-Aldrich Company Ltd. (now Merck KGaA) (Gillingham, UK). UTP was dissolved in distilled water, forskolin in methanol, while anionophores and channel modulators were prepared in DMSO. Stock solutions were stored at –20 °C except those of anionophores, which were stored at room temperature. Immediately before use, stock solutions were diluted to final concentrations. Precautions against light-sensitive reactions were observed when using anionophores and channel modulators. DMSO […]
# Previous work has identified that some anionophores trigger apop totic cell death.18,19,2018,19 Using the IncuCyte ZOOMTM live-cell analysis system and the IncuCyte annexin V red reagent, we assessed whether the anionophores 11, 12, 15 and 19 induce […]
# concentrations ≥ 10 µM with the effects of 30 and 50 µM apparent from as early as 2 h (P < […]
# concentrations tested over the 24 h period studied (P > 0.05 vs. DMSO 0.5% v v-1) (Fig. S25). […]
# the data re-affirm the promising biological activity of anionophore 11.
# [3] = 10 μM, 24 h period, P < 0.05 vs. DMSO
# [4] = 30 μM, 24 h period, P < 0.05 vs. DMSO
# [5] = 50 μM, 24 h period, P < 0.05 vs. DMSO
compound,measurement,setting,value
CCOC(=O)[C@]12CC[C@@H](NC(=S)Nc3ccc([N+](=O)[O-])cc3)C[C@@H]1C[C@@H](NC(=S)Nc1ccc([N+](=O)[O-])cc1)CC2 [Compound 12],time points at which cytotoxicity is apparent,"YFP-FRT cells [1]; rat, 24 h, 30 µM",≥ 2 h
same,time points at which cytotoxicity is apparent,"YFP-FRT cells [1]; rat, 24 h, 50 µM",≥ 2 h
same,time from which apoptosis is apparent,YFP-FRT cells [2],≥ 2 h
same,induction of apoptosis,YFP-FRT cells [2],positive effects
CCOC(=O)[C@]12CC[C@@H](NC(=S)Nc3cc(C(F)(F)F)cc(C(F)(F)F)c3)C[C@@H]1C[C@@H](NC(=S)Nc1cc(C(F)(F)F)cc(C(F)(F)F)c1)CC2 [Compound 15],time points at which cytotoxicity is apparent,"YFP-FRT cells [1]; 5 μM, 24 h period, P < 0.05 vs. DMSO",≥ 2 h
same,toxicity (IncuCyte ZOOM),YFP-FRT cells [1]; 10 μM,some cell death
same,time points at which cytotoxicity is apparent,YFP-FRT cells [1]; [3],≥ 2 h
same,time points at which cytotoxicity is apparent,YFP-FRT cells [1]; [4],≥ 2 h
same,time points at which cytotoxicity is apparent,YFP-FRT cells [1]; [5],≥ 2 h
same,time from which apoptosis is apparent,YFP-FRT cells [2],≥ 2 h
same,induction of apoptosis,YFP-FRT cells [2],positive effects
FC(F)(F)c1cc(NC(=S)NCCN(CCNC(=S)Nc2cc(C(F)(F)F)cc(C(F)(F)F)c2)CCNC(=S)Nc2cc(C(F)(F)F)cc(C(F)(F)F)c2)cc(C(F)(F)F)c1 [Compound 19],toxicity (IncuCyte ZOOM),YFP-FRT cells [1]; 10 μM,some cell death
same,time points at which cytotoxicity is apparent,YFP-FRT cells [1]; [3],≥ 8 h
same,time points at which cytotoxicity is apparent,YFP-FRT cells [1]; [4],≥ 2 h
same,time points at which cytotoxicity is apparent,YFP-FRT cells [1]; [5],≥ 2 h
same,time from which apoptosis is apparent,YFP-FRT cells [2],≥ 2 h
same,induction of apoptosis,YFP-FRT cells [2],positive effects
